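Step 1: Grow cells in 96-well plates. Step 2: Expose to compound for 48 hours at 5 concentrations. Step 3: Interpolate endpoints linearly; if unreached, use highest concentration. GI50 marks 50% less growth.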 Active and inactive are the calls of the source. No stated cut-off is given here; in the data, active = GI50 up to about 1.1 µM and inactive = higher.
Experiments:
Assay in all cases: NCI-60 cell line screen, 48 h
NCI/ADR-RES = test system: NCI/ADR-RES
DU-145 = test system: DU-145
A498 = test system: A498
NCI-H23 = test system: NCI-H23
786-0 = test system: 786-0
EKVX = test system: EKVX
NCI-H226 = test system: NCI-H226
NCI-H460 = test system: NCI-H460
SN12C = test system: SN12C
SW-620 = test system: SW-620
LOX IMVI = test system: LOX IMVI
K562 = test system: K562
BT-549 = test system: BT-549
NCI-H522 = test system: NCI-H522
ACHN = test system: ACHN
HL-60 = test system: HL-60
SK-MEL-5 = test system: SK-MEL-5
HCC 2998 = test system: HCC 2998
HT-29 = test system: HT-29

C=CCN(c1cc(OC)c2[nH]c(C(=O)O)c(C)c2c1[N+](=O)[O-])S(C)(=O)=O
GI50 (NCI/ADR-RES): > 100 µM (inactive) | GI50 (DU-145): > 100 µM (inactive) | GI50 (A498): > 100 µM (inactive) | GI50 (NCI-H23): > 100 µM (inactive) | GI50 (786-0): > 100 µM (inactive) | GI50 (EKVX): > 100 µM (inactive) | GI50 (NCI-H226): > 100 µM (inactive) | GI50 (NCI-H460): > 100 µM (inactive) | GI50 (SN12C): 54.3 µM (inactive) | GI50 (SW-620): > 100 µM (inactive) | GI50 (LOX IMVI): > 100 µM (inactive) | GI50 (K562): > 100 µM (inactive) | GI50 (BT-549): > 100 µM (inactive) | GI50 (NCI-H522): 10 µM (inactive) | GI50 (ACHN): > 100 µM (inactive) | GI50 (HL-60): > 100 µM (inactive) | GI50 (SK-MEL-5): > 100 µM (inactive) | GI50 (HCC 2998): > 100 µM (inactive)

CC(O)C1(CNc2cc(Cl)nc(N)n2)CCCCC1 (stereo not drawn)
GI50 (NCI/ADR-RES): 58.2 µM (inactive) | GI50 (DU-145): > 100 µM (inactive) | GI50 (A498): 39.3 µM (inactive) | GI50 (NCI-H23): 83.6 µM (inactive) | GI50 (HT-29): > 100 µM (inactive) | GI50 (786-0): > 100 µM (inactive) | GI50 (EKVX): 58.1 µM (inactive) | GI50 (NCI-H226): > 100 µM (inactive) | GI50 (NCI-H460): > 100 µM (inactive) | GI50 (SN12C): 82.6 µM (inactive) | GI50 (SW-620): > 100 µM (inactive) | GI50 (LOX IMVI): 91 µM (inactive) | GI50 (K562): 69.3 µM (inactive) | GI50 (BT-549): 70.1 µM (inactive) | GI50 (NCI-H522): 55.7 µM (inactive) | GI50 (ACHN): > 100 µM (inactive) | GI50 (HL-60): 89.7 µM (inactive) | GI50 (SK-MEL-5): 45.6 µM (inactive)

COC1/C=C/C(C)C(OC)CC(O)/C=C/C(C)C(C(C)C(OC)C(C)CCC(=O)C(C)C(C/C=C/N(C)C=O)OC)OC(=O)/C=C/C=C(\C)CC(OC)C(OC)C2=CC(=O)O[C@@H](C(C)C(OC)C1)[C@H]2O (stereo partly drawn)
GI50 (NCI/ADR-RES): 0.0522 µM (active) | GI50 (DU-145): 0.0959 µM (active) | GI50 (A498): 0.0289 µM (active) | GI50 (NCI-H23): 0.0512 µM (active) | GI50 (HT-29): 0.0356 µM (active) | GI50 (786-0): 0.0442 µM (active) | GI50 (EKVX): 0.08 µM (active) | GI50 (NCI-H226): 0.0194 µM (active) | GI50 (NCI-H460): 0.0172 µM (active) | GI50 (SN12C): 0.0498 µM (active) | GI50 (SW-620): 0.0361 µM (active) | GI50 (LOX IMVI): 0.00791 µM (active) | GI50 (BT-549): 0.0578 µM (active) | GI50 (NCI-H522): 0.0295 µM (active) | GI50 (ACHN): 0.0367 µM (active) | GI50 (HL-60): 0.0299 µM (active) | GI50 (SK-MEL-5): 0.0387 µM (active) | GI50 (HCC 2998): 0.0182 µM (active)

N#CC(/N=N/c1ccccc1)c1nc2ccccc2o1 (stereo not drawn)
GI50 (NCI/ADR-RES): 23.8 µM (inactive) | GI50 (DU-145): 26.5 µM (inactive) | GI50 (A498): 76.9 µM (inactive) | GI50 (NCI-H23): 18.6 µM (inactive) | GI50 (HT-29): 61.4 µM (inactive) | GI50 (786-0): 21.8 µM (inactive) | GI50 (EKVX): 20.2 µM (inactive) | GI50 (NCI-H226): 35.7 µM (inactive) | GI50 (NCI-H460): 96.4 µM (inactive) | GI50 (SN12C): 83.4 µM (inactive) | GI50 (K562): 45.1 µM (inactive) | GI50 (BT-549): 20.7 µM (inactive) | GI50 (NCI-H522): 27.2 µM (inactive) | GI50 (ACHN): 19.3 µM (inactive) | GI50 (HL-60): > 100 µM (inactive) | GI50 (SK-MEL-5): 86.9 µM (inactive) | GI50 (HCC 2998): > 100 µM (inactive)

C(/C=N/c1ccccc1)=C(/Nc1ccccc1)c1ccc2ccccc2c1
GI50 (NCI/ADR-RES): 1.5 µM (inactive) | GI50 (DU-145): 2.02 µM (inactive) | GI50 (A498): 12.4 µM (inactive) | GI50 (NCI-H23): 2.13 µM (inactive) | GI50 (HT-29): 1.77 µM (inactive) | GI50 (786-0): 2.45 µM (inactive) | GI50 (NCI-H226): 1.77 µM (inactive) | GI50 (NCI-H460): 2.81 µM (inactive) | GI50 (SN12C): 1.6 µM (inactive) | GI50 (SW-620): 3.88 µM (inactive) | GI50 (LOX IMVI): 1.53 µM (inactive) | GI50 (K562): 0.897 µM (active) | GI50 (BT-549): 1.08 µM (active) | GI50 (NCI-H522): 3.87 µM (inactive) | GI50 (ACHN): 2.39 µM (inactive) | GI50 (HL-60): 1.5 µM (inactive) | GI50 (SK-MEL-5): 2.63 µM (inactive)

Nc1ncnc2c1ncn2C1OC(C(=O)OCCO)C(O)C1O (stereo not drawn)
GI50 (NCI/ADR-RES): > 100 µM (inactive) | GI50 (DU-145): > 100 µM (inactive) | GI50 (A498): > 100 µM (inactive) | GI50 (NCI-H23): > 100 µM (inactive) | GI50 (HT-29): > 100 µM (inactive) | GI50 (786-0): > 100 µM (inactive) | GI50 (EKVX): > 100 µM (inactive) | GI50 (NCI-H226): > 100 µM (inactive) | GI50 (NCI-H460): > 100 µM (inactive) | GI50 (SN12C): > 100 µM (inactive) | GI50 (SW-620): > 100 µM (inactive) | GI50 (LOX IMVI): > 100 µM (inactive) | GI50 (K562): > 100 µM (inactive) | GI50 (BT-549): > 100 µM (inactive) | GI50 (NCI-H522): > 100 µM (inactive) | GI50 (ACHN): > 100 µM (inactive) | GI50 (HL-60): > 100 µM (inactive) | GI50 (SK-MEL-5): > 100 µM (inactive)

C=C1C[C@@H]2CC[C@@]34CC5O[C@H]6C(O[C@H]7CC[C@H](CC(=O)O[C@@H]8[C@@H](C)[C@@H]9O[C@@H]%10C[C@]%11(C[C@@H]%12O[C@]%13(C[C@H](C)[C@@H]%14O[C@@H]%15CC(C(O)CO)O[C@@H]%15C[C@@H]%14O%13)C[C@H](C)[C@@H]%12O%11)O[C@@H]%10C[C@@H]9O[C@H]8CC8O[C@@H](CC[C@@H]1O2)C[C@@H](C)C8(O)CO)O[C@@H]7[C@@H]6O3)[C@H]5O4 (stereo partly drawn)
GI50 (NCI/ADR-RES): > 1 µM (active) | GI50 (DU-145): > 0.916 µM (active) | GI50 (A498): > 1 µM (active) | GI50 (NCI-H23): > 0.473 µM (active) | GI50 (786-0): 0.804 µM (active) | GI50 (EKVX): > 1 µM (active) | GI50 (NCI-H226): 0.986 µM (active) | GI50 (NCI-H460): 0.53 µM (active) | GI50 (SN12C): > 1 µM (active) | GI50 (SW-620): > 0.736 µM (active) | GI50 (LOX IMVI): 0.48 µM (active) | GI50 (K562): > 0.933 µM (active) | GI50 (BT-549): 0.00891 µM (active) | GI50 (NCI-H522): 0.184 µM (active) | GI50 (ACHN): > 1 µM (active) | GI50 (HL-60): > 1 µM (active) | GI50 (SK-MEL-5): 0.624 µM (active) | GI50 (HCC 2998): > 1 µM (active)

CCCCCOC(=O)c1cc2cc(CCl)ccc2oc1=O
GI50 (NCI/ADR-RES): 17.3 µM (inactive) | GI50 (DU-145): 3.86 µM (inactive) | GI50 (A498): 2.44 µM (inactive) | GI50 (NCI-H23): 1.5 µM (inactive) | GI50 (HT-29): 7.01 µM (inactive) | GI50 (786-0): 3.02 µM (inactive) | GI50 (EKVX): 3.37 µM (inactive) | GI50 (NCI-H226): 15.7 µM (inactive) | GI50 (NCI-H460): 17.2 µM (inactive) | GI50 (SN12C): 9.59 µM (inactive) | GI50 (SW-620): 12.1 µM (inactive) | GI50 (LOX IMVI): 14.4 µM (inactive) | GI50 (K562): 3.79 µM (inactive) | GI50 (BT-549): 11.9 µM (inactive) | GI50 (NCI-H522): 0.213 µM (active) | GI50 (ACHN): 0.537 µM (active) | GI50 (HL-60): 0.552 µM (active) | GI50 (SK-MEL-5): 2.62 µM (inactive) | GI50 (HCC 2998): 14.9 µM (inactive)
